These compounds were tested against T1, human H4 receptor (Homo sapiens, UniProt Q9H3N8) (assay: [3H]Histamine binding on membranes of CHO cells stably expressing human H4 receptor).
T1 construct: expressed in transfected cells
How it was run: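 Filter-bound counts (liquid scintillation) gave H4 binding. Incubation used 20 μg membrane protein/well in Tris/HCl 50 mM plus EDTA 0.5 mM at pH 7.4, and 10 μM JNJ 7777120 set nonspecific binding. Filtration on GF/B pretreated with polyethyleneimine stopped the reaction.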

Ki or IC50 activity class [nM] | SMILES
< 300 | CN1CCC(OC(c2cccc(SCCc3cnccn3)c2)c2nc3ccccc3s2)CC1 (stereo not shown) [Example 233, 2-{(1-methylpiperidin-4-yloxy)[3-(2-pyrazin-2-yl-ethylsulfanyl)phenyl]methyl}benzothiazole]
< 1000 | CN1CCC(OC(c2nc3ccccc3s2)c2ccccc2Cl)CC1 (stereo not shown) [Example 281, 2-[(2-Chlorophenyl)(1-methylpiperidin-4-yloxy)methyl]benzothiazole]
< 1000 | C=CCOc1cccc(C(NC2CCN(C)CC2)c2nc3ccccc3[nH]2)c1 (stereo not shown) [Example 112, [(3-allyloxyphenyl)(1H-benzimidazol-2-yl)methyl](1-methylpiperidin-4-yl)amine]
< 30 | CSc1cccc(C(OC2CCN(C)CC2)c2nc3ccccc3s2)c1 (stereo not shown) [Example 201, 2-[(1-methylpiperidin-4-yloxy)(3-methylsulfanyl-phenyl)methyl]benzothiazole]
< 30 | CN1CCC(OC(c2nc3ccccc3[nH]2)c2c(F)cccc2F)CC1 (stereo not shown) [Example 512]
< 300 | CN1CCC(OC(c2cccc(C=CS(=O)(=O)c3ccccc3)c2)c2nc3ccccc3s2)CC1 (stereo not shown) [Example 209, 2-[[3-(2-benzenesulfonylvinyl)phenyl](1-methylpiperidin-4-yloxy)methyl]benzothiazole]
< 30 | CN1CCC(OC(c2cccc(OC(F)(F)F)c2)c2nc3ccccc3s2)CC1 (stereo not shown) [Example 23, 2-[(1-methylpiperidin-4-yloxy)(3-trifluoromethoxyphenyl)methyl]benzothiazole]
< 1000 | CN1CCC(OC(c2cccc(C(=O)N(C)Cc3ccccc3)c2)c2nc3ccccc3s2)CC1 (stereo not shown) [Example 219, 3-[benzothiazol-2-yl(1-methylpiperidin-4-yloxy)methyl]-N-benzyl-N-methylbenzamide]
< 1000 | CN1CCC(OC(c2cccc(C#CCCN)c2)c2nc3ccccc3s2)CC1 (stereo not shown) [Example 282, 4-{3-[benzothiazol-2-yl(1-methylpiperidin-4-yloxy)methyl]phenyl}but-3-ynylamine]
< 30 | CN1CCC(OC(c2cccc(OCc3cccc(F)c3F)c2)c2nc3ccccc3s2)CC1 (stereo not shown) [Example 161, 2-[[3-(2,3-difluorobenzyloxy)phenyl](1-methylpiperidin-4-yloxy)methyl]benzothiazole]
< 300 | CN1CCC(OC(c2cccc(OCCCCN)c2)c2nc3ccccc3[nH]2)CC1 (stereo not shown) [Example 331, 4-{3-[(1H-benzimidazol-2-yl)(1-methylpiperidin-4-yloxy)methyl]phenoxy}butylamine]
< 300 | CN1CCC(OC(c2nc3ccccc3[nH]2)c2cc(Cl)ccc2F)CC1 (stereo not shown) [Example 496]
< 30 | CN1CCC(NC(c2cccc(-c3ccccc3)c2)c2nc3ccccc3s2)CC1 (stereo not shown) [Example 102, (benzothiazol-2-ylbiphenyl-3-ylmethyl)(1-methylpiperidin-4-yl)amine]
< 300 | CN1CCC(OC(c2cccc(OCc3ccncc3)c2)c2nc3ccccc3s2)CC1 (stereo not shown) [Example 265, 2-{(1-methylpiperidin-4-yloxy)[3-(pyridin-4-ylmethoxy)phenyl]methyl}benzothiazole]
< 30 | Cc1cc(F)c(C(OC2CCN(C)CC2)c2nc3ccccc3[nH]2)c(F)c1 (single isomer, unassigned) [Example 559, 2-[(2,6-difluoro-4-methylphenyl)(1-methylpiperidin-4-yloxy)methyl]-1H-benzimidazole]
< 300 | CN1CCC(OC(c2cccc(-c3ccc(C(F)(F)F)cc3)c2)c2nc3ccccc3s2)CC1 (stereo not shown) [Example 140, 2-[(1-methylpiperidin-4-yloxy)(4′-trifluoromethylbiphenyl-3-yl)methyl]benzothiazole]
< 30 | CN1CCC(OC(c2cccc(Br)c2)c2nc3cc(F)ccc3[nH]2)CC1 (single isomer, unassigned) [Example 568, 2-[(3-bromophenyl)(1-methylpiperidin-4-yloxy)methyl]-5-fluoro-1H-benzimidazole]
< 30 | CN1CCC(OC(c2nc3ccccc3[nH]2)c2cc(OCCF)ccc2F)CC1 (stereo not shown) [Example 489]
< 300 | COc1ccc(-c2cccc(C(OC3CCN(C)CC3)c3nc4ccccc4s3)c2)cc1 (stereo not shown) [Example 100, 2-[(4′-methoxybiphenyl-3-yl)(1-methylpiperidin-4-yloxy)methyl]benzothiazole]
< 300 | CCN1CCC(OC(c2cccc(OCCN)c2)c2nc3ccccc3s2)CC1 (stereo not shown) [Example 290, 2-{3-[benzothiazol-2-yl(1-ethyl-piperidin-4-yloxy)methyl]phenoxy}ethylamine]
< 300 | CN1CCC(OC(c2cccc(SCCCCCCO)c2)c2nc3ccccc3s2)CC1 (stereo not shown) [Example 292, 6-{3-[benzothiazol-2-yl(1-methylpiperidin-4-yloxy)methyl]phenylsulfanyl}hexan-1-ol]
< 30 | CN1CCC(OC(c2cccc(C#CCCCNC(=N)N)c2)c2nc3ccccc3[nH]2)CC1 (stereo not shown) [Example 358, N-(5-{3-[(1H-benzimidazol-2-yl)(1-methylpiperidin-4-yloxy)methyl]phenyl}pent-4-ynyl)guanidine]

Ki or IC50 activity class [nM] | SMILES
< 300 | CN1CCC(OC(c2cccc(OC(F)(F)F)c2)c2nc3ccccc3[nH]2)CC1 (stereo not shown) [Example 280, 2-[(1-methylpiperidin-4-yloxy)(3-trifluoromethoxy-phenyl)methyl]-1H-benzimidazole]
< 30 | CN1CCC(OC(c2cccc(C#CCCCN)c2)c2nc3ccccc3s2)CC1 (stereo not shown) [Example 287, 5-{3-[benzothiazol-2-yl(1-methylpiperidin-4-yloxy)methyl]phenyl}pent-4-ynylamine]
< 300 | CN1CCC(OC(c2cccc(N3CCOCC3)c2)c2nc3ccccc3s2)CC1 (stereo not shown) [Example 243, 2-[(1-methylpiperidin-4-yloxy)(3-morpholin-4-yl-phenyl)methyl]benzothiazole]
< 300 | CN1CCC(OC(c2cccc(OCCCCO)c2)c2nc3ccccc3s2)CC1 (stereo not shown) [Example 266, 4-{3-[benzothiazol-2-yl(1-methylpiperidin-4-yloxy)methyl]phenoxy}butan-1-ol]
< 30 | CN1CCC(OC(c2nc3ccccc3[nH]2)c2cc(C#CCCCN)ccc2F)CC1 (stereo not shown) [Example 442]
< 300 | CN1CCC(OC(c2cccc(OCCO)c2)c2nc3ccccc3s2)CC1 (stereo not shown) [Example 244, 2-{3-[benzothiazol-2-yl(1-methylpiperidin-4-yloxy)methyl]phenoxy}ethanol]
< 300 | CN1CCC(OC(c2ccc(F)cc2)c2nc3ccccc3s2)CC1 (stereo not shown) [Example 3, 2-[(4-fluorophenyl)(1-methylpiperidin-4-yloxy)methyl]benzothiazole]
< 1000 | CN1CCC(OC(c2cccc(OCC3CCCNC3)c2)c2nc3ccccc3s2)CC1 (stereo not shown) [Example 378, 2-{(1-methylpiperidin-4-yloxy)[3-(piperidin-3-ylmethoxy)phenyl]methyl}benzothiazole]
< 30 | CN1CCC(COC(c2cccc(Br)c2)c2nc3cc(F)ccc3[nH]2)C1 (stereo not shown) [Example 449, 2-[(3-bromophenyl)(1-methylpyrrolidin-3-ylmethoxy)methyl]-5-fluoro-1H-benzimidazole]
< 300 | CN1CCC(OC(c2cccc(-c3cccc(CO)c3)c2)c2nc3ccccc3[nH]2)CC1 (stereo not shown) [Example 86, {3′-[(1H-benzimidazol-2-yl)(1-methylpiperidin-4-yloxy)methyl]biphenyl-3-yl}methanol]
< 1000 | CN1CCC(OC(c2cccc(OCCCN3CCN(C(=O)OC(C)(C)C)CC3)c2)c2nc3ccccc3s2)CC1 (stereo not shown) [Example 351, 4-(3-{3-[benzothiazol-2-yl(1-methylpiperidin-4-yloxy)methyl]phenoxy}propyl)piperazine-1-carboxylic acid tert-butyl ester]
< 300 | CN1CCC(NC(c2cccc(Br)c2)c2nc3ccccc3s2)CC1 (stereo not shown) [Example 82, [benzothiazol-2-yl(3-bromophenyl)methyl](1-methylpiperidin-4-yl)amine]
< 300 | CN1CCC(OC(c2cccc(C=CCCCO)c2)c2nc3ccccc3s2)CC1 (stereo not shown) [Example 384, 5-{3-[benzothiazol-2-yl(1-methylpiperidin-4-yloxy)methyl]phenyl}pent-4-en-1-ol]
< 30 | CN1CCC(NC(c2cccc(SCc3ccccc3)c2)c2nc3ccccc3s2)CC1 (stereo not shown) [Example 107, [benzothiazol-2-yl(3-benzylsulfanylphenyl)methyl](1-methylpiperidin-4-yl)amine]
< 30 | CN1CCC(OC(c2cccc(OCCF)c2)c2nc3ccccc3s2)CC1 (stereo not shown) [Example 163, 2-[[3-(2-fluoroethoxy)phenyl](1-methylpiperidin-4-yloxy)methyl]benzothiazole]
< 300 | CN1CCC(OC(c2cccc(OCCCO)c2)c2nc3ccccc3s2)CC1 (stereo not shown) [Example 258, 3-{3-[benzothiazol-2-yl(1-methylpiperidin-4-yloxy)methyl]phenoxy}propan-1-ol]
< 30 | CN1CCC(OC(c2cccc(-c3c[nH]nn3)c2)c2nc3ccccc3[nH]2)CC1 (stereo not shown) [Example 198, 2-{(1-methylpiperidin-4-yloxy)[3-(1H-[1,2,3]triazol-4-yl)phenyl]methyl}-1H-benzimidazole]
< 300 | CCOC(=O)c1cccc(C(OC2CCN(C)CC2)c2nc3ccccc3s2)c1 (stereo not shown) [Example 206, 3-[benzothiazol-2-yl(1-methylpiperidin-4-yloxy)methyl]benzoic acid ethyl ester]
< 30 | COc1cc(F)cc(C(OC2CCN(C)CC2)c2nc3ccccc3s2)c1 (stereo not shown) [Example 40, 2-[(3-fluoro-5-methoxyphenyl)(1-methylpiperidin-4-yloxy)methyl]benzothiazole]
< 300 | CN1CCC(OC(c2ccsc2)c2nc3ccccc3[nH]2)CC1 (stereo not shown) [Example 539]
< 1000 | CCOC(=O)NCCCCC#Cc1cccc(C(OC2CCN(C)CC2)c2nc3ccccc3n2C)c1 (stereo not shown) [Example 549, ethyl (6-{3-[(1-methyl-1H-benzimidazol-2-yl)(1-methylpiperidin-4-yloxy)methyl]phenyl}hex-5-ynyl)carbamate]
